{"source": "patent US20130315903A1", "about": "“ARYLSULFONAMIDE DERIVATIVES FOR THE PREVENTION OR TREATMENT OF SPECIFIC OPHTHALMOLOGIC DISORDERS” (FOVEA PHARMACEUTICALS, priority 2010, published 2013)", "molecules": {"B1": {"name": "rKBP: Recombinant tissue kallikrein binding protein, reference drug given intravitreally (protein, UniProt P29622 21-427, looked up)", "Kallistatin": "QLHVEHDGESCSNSSHQQILETGEGSPSLKIAPANADFAFRFYYLIASETPGKNIFFSPLSISAAYAMLSLGACSHSRSQILEGLGFNLTELSESDVHRGFQHLLHTLNLPGHGLETRVGSALFLSHNLKFLAKFLNDTMAVYEAKLFHTNFYDTVGTIQLINDHVKKETRGKIVDLVSELKKDVLMVLVNYIYFKALWEKPFISSRTTPKDFYVDENTTVRVPMMLQDQEHHWYLHDRYLPCSVLRMDYKGDATVFFILPNQGKMREIEEVLTPEMLMRWNNLLRKRNFYKKLELHLPKFSISGSYVLDQILPRLGFTDLFSKWADLSGITKQQKLEASKSFHKATLDVDEAGTEAAAATSFAIKFFSAQTNRHILRFNRPFLVVIFSTSTQSVLFLGKVVDPTKP"}}, "key": {"[1]": {"system": "retina of diabetic Wistar rats (B1R, B2R, i-NOS, e-NOS, COX-2, ICAM-1, VEGF-R2, VEGF-a, IL-1β, HIF-1α mRNA)", "assay": "mRNA expression of cytokines, vasoactive mediators and growth factors in retina of diabetic Wistar rats", "assay_type": "in vivo, rat", "conditions": "1% eye drops 7 days", "description": "In order to explore molecular pathways involved into reduction of retinal vascular permeability by compound n° 49 phosphate in diabetic rats, expression of mRNA of cytokines, vasoactive mediators and growth factors was quantified in retina of control and diabetic Wistar rats treated or not with 1% compound n° 49 phosphate eye drops for 7 days. Expression of mRNA of B1R, B2R, i-NOS, e-NOS, COX-2, ICAM-1, VEGF-R2, VEGF-a, IL-1β and HIF-1α was increased in diabetic rat retina compared to control by 7.5-fold (P<0.05), 5.5, 15- (P<0.01), 6.5-, 8- (P<0.05), 8- , 5- (P<0.05), 12-, 6.5- (P<0.01) and 7-fold (P<0.05), respectively. Expression of TNF-α mRNA remained unchanged."}, "[2]": {"system": "retinal vascular permeability in streptozotocin-diabetic Brown-Norway rats", "assay": "Retinal vascular permeability (Evans Blue dye) in streptozotocin-diabetic Brown-Norway rats, eye drops", "assay_type": "in vivo, rat", "experimental": "Male Brown-Norway or Wistar rats were made diabetic by […] injection of 65 mg/kg intraperitoneal streptozotocin. Rats with a glycemia <350 mg/dl were discarded from the study. Seven days later, Brown-Norway rats were treated twice daily for 7 days with a single eye drop (10 μl) containing 0.1, 0.3, 1 and 3% phosphate salt of compound n° 49 or its vehicle (Saline Solution). Wistar rats were treated over the same period (from day 7 for 7 days) with a single eye drop (10 μl) containing 0.3 and 1% fumarate salt of compound n° 49 or its vehicle (Saline Solution). On day 15, retinal vascular leakage was determined by measurement of retinal content of Evans Blue dye.\nMore specifically, FIG. 1A is the dose-response of compound n° 49 instilled twice a day for 7 days as eye drops (0.1 to 3%) on retinal vascular leakage in streptozotocin-diabetic Brown-Norway rats. Recombinant tissue kallikrein binding protein (rKBP) was used as a reference drug and was given intravitreally 48 hours before vascular leakage measurement. Values are means ±standard error mean of 12 eyes/group (6 rats). *** means that P<0.001in a Student's t-test.\nThe route by which the phosphate salt of compound n° 49 reaches the retina following topical instillation was investigated to determine whether it is mainly by systemic circulation or by the trans- and/or peri-ocular pathway. Diabetic Brown-Norway rats were treated with 3% compound n° 49 phosphate in a single eye for 7 days or subcutaneously with matching daily dosage (0.6 mg/rat). […] In addition, a daily subcutaneous administration of 0.6 mg compound n° 49 phosphate rat had no effect on retinal vascular permeability."}, "[3]": {"system": "leukocyte adhesion to the retinal vasculature", "assay": "Leukocyte adhesion to the retinal vasculature (leukostasis) of streptozotocin-diabetic Wistar rats", "assay_type": "in vivo, rat", "conditions": "1% phosphate eye drop twice-a-day for 7 days, P<0.05", "description": "The effect of compound n° 49 phosphate on leukocyte adhesion to the retinal vasculature of streptozotocin-diabetic Wistar rats was also investigated using the same protocol of administration of compound n° 49 phosphate (1% eye drop twice-a-day for 7 days)."}, "[4]": {"system": "retina of diabetic Wistar rats (B1R, B2R, i-NOS, e-NOS, COX-2, ICAM-1, VEGF-R2, VEGF-a, IL-1β, HIF-1α mRNA)", "assay": "mRNA expression of cytokines, vasoactive mediators and growth factors in retina of diabetic Wistar rats", "assay_type": "in vivo, rat", "conditions": "1% eye drops 7 days", "remark": "listed apart in the source"}, "[5]": {"system": "retinal vascular leakage in STZ diabetic Brown-Norway rats", "conditions": "intravitreal route, positive reference drug; cited from earlier work"}}, "note": "“And” between values parts separate entries of the source, which are not always exact repeats. Identical values can stand only once.", "data": [{"molecule": "COc1cc(C)c(S(=O)(=O)N(C)CCOCC(=O)N(C)Cc2ccc(C3=NCCN3)cc2)c(C)c1", "note": "[compound n° 49 phosphate]", "values": [{"measurement": "mRNA expression of B1R in retina", "setting": "[1]", "value": "down-regulated to control level"}, {"measurement": "mRNA expression of B2R in retina", "setting": "[1]", "value": "down-regulated to control level"}, {"measurement": "mRNA expression of COX-2 in retina", "setting": "[1]", "value": "down-regulated to control level"}, {"measurement": "mRNA expression of HIF-1α in retina", "setting": "[1]", "value": "down-regulated to control level"}, {"measurement": "mRNA expression of ICAM-1 in retina", "setting": "[1]", "value": "down-regulated to control level"}, {"measurement": "mRNA expression of VEGF-A in retina (in list down-regulated to control level)", "setting": "[1]", "value": "down-regulated to control level"}, {"measurement": "mRNA expression of e-NOS in retina", "setting": "[1]", "value": "down-regulated to control level"}, {"measurement": "mRNA expression of i-NOS in retina", "setting": "[1]", "value": "down-regulated to control level"}, {"measurement": "reduction of expression of VEGF-A mRNA in retina", "setting": "[1]", "value": 50, "unit": "%"}, {"measurement": "reduction of retinal vascular permeability, treated eye", "setting": "[2]; 3% phosphate in a single eye for 7 days, diabetic Brown-Norway rats, P<0.001", "value": 37, "unit": "%"}, {"measurement": "reduction of retinal oedema, maximum", "setting": "[2]; phosphate salt, eye drop 0.1-3% twice daily for 7 days, dose-dependent, diabetic Brown-Norway rats", "value": 55, "unit": "%"}, {"measurement": "leukostasis in retinal vessels of diabetic rats", "setting": "[3]", "value": "significantly blunted"}, {"measurement": "mRNA expression of IL-1β in retina", "setting": "[4]", "value": "down-regulated to control level"}]}, {"molecule": "COc1cc(C)c(S(=O)(=O)N(C)CCOCC(=O)N(C)Cc2ccc(C3=NCCN3)cc2)c(C)c1", "note": "[compound n° 49]", "values": [{"measurement": "reduction of retinal edema, maximum", "setting": "[2]; 1% eye drops, two separate preliminary studies (data not shown), strain not stated", "value": "58% and 63%"}]}, {"molecule": "B1", "values": [{"measurement": "reduction of retinal vascular leakage", "setting": "[5]", "value": "approximately 50%"}]}]}
